# Values quoted from earlier work, collected in US8450455B2, “cRGD peptide derivative and its manufacture, and implant having a coating containing a cRGD peptide derivative” (Biotronik AG, priority 2010, dated 2013).
# How the values were obtained:
# [1] = 1-octanol/water, 25° C.
# [2] = target: integrin ανβ3 (Homo sapiens, UniProt P05106+P06756); settings: integrin expressed by tumor cells
# Chain of integrin ανβ3 (P06756 31-889 limits assumed): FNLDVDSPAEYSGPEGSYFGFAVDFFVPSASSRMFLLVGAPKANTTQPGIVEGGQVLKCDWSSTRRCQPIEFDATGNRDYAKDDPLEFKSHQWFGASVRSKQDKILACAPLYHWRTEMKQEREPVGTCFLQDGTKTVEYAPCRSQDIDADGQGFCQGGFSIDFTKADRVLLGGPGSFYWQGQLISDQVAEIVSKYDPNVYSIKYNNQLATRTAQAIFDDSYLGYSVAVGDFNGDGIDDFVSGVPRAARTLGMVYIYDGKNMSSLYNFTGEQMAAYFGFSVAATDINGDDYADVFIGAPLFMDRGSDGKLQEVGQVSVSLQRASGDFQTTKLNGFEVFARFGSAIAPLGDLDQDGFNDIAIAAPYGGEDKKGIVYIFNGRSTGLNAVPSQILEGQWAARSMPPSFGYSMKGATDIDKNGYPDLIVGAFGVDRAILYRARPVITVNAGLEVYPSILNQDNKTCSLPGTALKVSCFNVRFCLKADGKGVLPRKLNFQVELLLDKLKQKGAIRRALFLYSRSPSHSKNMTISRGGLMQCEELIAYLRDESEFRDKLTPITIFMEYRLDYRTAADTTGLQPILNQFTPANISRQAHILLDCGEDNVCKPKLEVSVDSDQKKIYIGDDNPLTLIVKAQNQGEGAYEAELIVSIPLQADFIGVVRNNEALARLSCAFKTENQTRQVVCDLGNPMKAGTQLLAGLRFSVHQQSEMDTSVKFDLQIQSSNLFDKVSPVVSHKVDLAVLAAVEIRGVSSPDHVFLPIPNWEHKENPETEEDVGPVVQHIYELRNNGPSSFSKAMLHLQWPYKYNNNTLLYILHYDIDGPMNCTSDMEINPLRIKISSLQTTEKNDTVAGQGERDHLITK
# Chain of integrin ανβ3 (P06756 891-1048 partner limits assumed): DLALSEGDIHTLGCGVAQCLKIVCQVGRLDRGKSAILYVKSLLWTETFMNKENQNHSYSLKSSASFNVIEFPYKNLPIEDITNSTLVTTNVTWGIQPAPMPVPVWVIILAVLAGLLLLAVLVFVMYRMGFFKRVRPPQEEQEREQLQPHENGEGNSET
# Chain of integrin ανβ3 (P05106 27-788): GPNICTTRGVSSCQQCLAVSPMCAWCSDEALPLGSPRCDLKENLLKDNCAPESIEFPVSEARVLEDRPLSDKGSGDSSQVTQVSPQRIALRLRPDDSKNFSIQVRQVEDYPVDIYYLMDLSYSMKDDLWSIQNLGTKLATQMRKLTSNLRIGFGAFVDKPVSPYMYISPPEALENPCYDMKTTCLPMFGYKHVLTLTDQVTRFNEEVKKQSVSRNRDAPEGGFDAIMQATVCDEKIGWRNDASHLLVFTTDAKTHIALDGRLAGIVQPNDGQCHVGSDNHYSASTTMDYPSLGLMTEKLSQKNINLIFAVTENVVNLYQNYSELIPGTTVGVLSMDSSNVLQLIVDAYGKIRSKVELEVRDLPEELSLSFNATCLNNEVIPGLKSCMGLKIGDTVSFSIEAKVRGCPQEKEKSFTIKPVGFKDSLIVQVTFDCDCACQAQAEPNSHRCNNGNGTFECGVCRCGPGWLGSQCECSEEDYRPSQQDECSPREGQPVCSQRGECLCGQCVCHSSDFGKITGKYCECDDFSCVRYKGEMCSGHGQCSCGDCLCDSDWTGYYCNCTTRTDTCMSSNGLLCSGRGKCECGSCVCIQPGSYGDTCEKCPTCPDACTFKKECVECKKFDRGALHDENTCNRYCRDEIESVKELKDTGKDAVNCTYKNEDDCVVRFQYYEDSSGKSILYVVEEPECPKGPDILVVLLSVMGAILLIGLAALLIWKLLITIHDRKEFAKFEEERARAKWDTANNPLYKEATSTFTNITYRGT
logP [1],inhibition of integrin ανβ3 [2],Compound
2.57,,CCCCCCCN [1-aminoheptane]
,well-inhibited,c(RGDfV)
